# Values quoted from earlier work in paper PMC5061580 (Journal of biomolecular structure & dynamics, 2016).
# Assays:
# [1] = test system: Madin-Darby canine kidney cells (MDCK); settings: in vitro cell culture monolayers; ref Makagiansar et al., 2001
# blood-brain barrier = settings: in-situ rat brain perfusion; ref Kiptoo et al., 2011; On et al., 2014
substance,measurement,setting,value
Ac-SHAVSS-NH2 [HAV6],delivery of 14C-mannitol across MDCK monolayers,[1],enhances
same,brain delivery of 14C-mannitol and 3H-daunomycin,blood-brain barrier,increase the brain delivery
